Assay results from article PMC9578445, “Association of respiratory failure with inhibition of NaV1.6 in the phrenic nerve” (Channels, 2022).
Where two headings read alike, the source gives them in different places.

Experiments:
[1] = Plasma exposure in phrenic nerve activity assay; format: in vivo; conditions: rat; for concentration at 15 min / concentration at 30 min / concentration at 10 min: CD, plasma, intravenous; for concentration at 15 min / concentration at 30 min: 10 mg/kg
Text: (§1) For in vivo CVR and phrenic nerve activity studies, all raw signals were amplified via general purposed biological amplifier (filter settings DC – 3-5 KhZ) then digitized, calibrated and collected at a minimum of 500 Hz (1000 Hz for ECG and 2000 Hz for cardiac electrograms, and 10 KHz for phrenic nerve activity) using Notocord-HEM data acquisition and analysis software. The raw signal was filtered following acquisition with a bandpass filter set to 200–800 Hz). Vehicle (100% dimethylformamdide, DMF) or compound formulated in the vehicle was administered as a 30-minute IV infusion at 0.0167 μL/g body weight/min. Doses were selected to achieve unbound plasma concentrations in range of measured Nav1.6 IC50 values when infused at 0.0167uL/g body weight/min based on measured rat clearance, plasma protein binding and Nav1.6 IC50. Exposure in rats was determined in separate pharmacokinetics experiments where compounds were administered via IV dosing.

[2] = system: rat diaphragm with the phrenic nerve attached; experiment: Rat hemisected diaphragm (HMD) assay, ex vivo
Text: Wistar derived male or female rats weighing 450 ± 50 g were euthanized by CO2 overexposure. The diaphragm with the phrenic nerve attached was removed and placed into a tissue recording chamber containing Krebs solution pH 7.4; (composition in g/L: NaCl 6.89, KCl 0.35, CaCl2 0.277, KH2PO4 0.163, MgSO4 · 7H2O 0.296, NaHCO3 2.1 and glucose 1.8). A piece of cotton was attached to the top of the phrenic nerve over the jaw electrodes. A second piece of cotton was attached to the tip of the tendinous tissue at the apex of the diaphragm preparation for attachment to an isometric transducer under 1 g tension. The rib of the diaphragm preparation was secured to the bottom of the jaw electrodes. […] The recording chamber was placed into a water bath kept at a temperature of 32°C by means of a suitable thermoregulator consisting of a thermostat and heating elements in addition to a water circulator.
The isometric transducer was connected to an amplifier and the tissue response was recorded on a two-pen recorder set at 1 volt. Field stimulation [S48 Stimulator (GRASS) set at 0.2 Hz (12 pulses per minute), 0.5 ms pulse duration at 70% of maximum voltage (about 3 to 5 volts)] delivered to two circle platinum electrodes (0.2 cm in diameter) was applied for transmural tissue stimulation. Each tissue preparation was washed three times in Krebs solution every 15 minutes for a 60 minute equilibration period and permitted to develop contractions. D-Tubocurarine (300 µM dissolved in 0.1 mL distilled water for a final 3 µM bath concentration) was added to establish an isometrically recorded control relaxation response ranging from one to two centimeters and corresponding to 60–70% of maximal relaxation. […] The tissue was then washed periodically until the contraction returns to the baseline value.
Sixty minutes later, the test compound was added (e.g. 30 mM in 0.01 mL vehicle of 100% DMSO, for final concentration of 30 µM test compound and 0.1% DMSO). A test compound recorded relaxation response of 50% or more (≥50%) within 5 minutes, relative to the 3 µM d-Tubocurarine control response, indicates neuromuscular blocking activity.

phrenic nerve = experiment: Rat phrenic nerve firing assay; conditions: rat in vivo, measured at 30 minutes
Description: To determine direct effects on phrenic nerve activity, male CD rats were anesthetized and instrumented as described above for the CV/R assay. In addition, an incision was made in the ventral neck area and the right phrenic nerve identified anatomically and isolated via blunt dissection. The phrenic nerve was placed over a high impedance bipolar hook electrode and the nerve covered with mineral oil to prevent desiccation. Animals were mechanically ventilated via a tracheotomy (~10 mL/kg, 40–70 breaths/min, titrated individually to stabilize phrenic activity) following neuromuscular block (pancuronium 0.5–1 mg/kg, iv) and bilateral vagotomy to better define test agent effects on phrenic nerve activity. Anesthesia was verified repeatedly following pancuronium administration by testing the BP/HR response to noxious stimuli. Spontaneous electrical activity was continuously recorded and then later rectified and averaged to calculate frequency, width, peak height of bursts, and magnitude. Magnitude of the activity was calculated by taking the absolute value of the raw signal and then averaging that signal over 50 ms increments. The resulting average signal was then converted to magnitude by subtracting the […] for each phrenic burst complex. The resulting magnitude values were then averaged over 1 minute increments to result in the graphs shown. Figure S1 in the Supplemental Information illustrates this analytical procedure.
as §1

[3] = system: anesthetized male CD rats; experiment: Rat Cardiovascular/Respiratory (CV/R) assay; format: in vivo; set-up: ∆ QRS Interval: unit not given here; conditions: rat, IV infusion
Description: Male CD Rats were anesthetized with ketamine:xylazine (85 mg/kg:5 mg/kg, im, to effect). The left femoral artery and vein were cannulated for the measurement of blood pressure and the administration of test agent, respectively. The right femoral vein was cannulated for maintenance anesthetic infusion (ketamine:xylazine ~35 mg/kg/hr:1.5 mg/kg/hr, iv, to effect). Needle electrodes were placed subcutaneously at the right axillary and left inguinal areas to record lead II ECGs. When ECG intervals were required to determine effect on cardiac conduction a pacing/recording electrode catheter was advanced through the right jugular vein to pace the heart. ECG intervals were then measured at a fixed cardiac rate of 400 beats/minute to remove any variability of intrinsic heart rate on these parameters.
To determine the test agent-dependent effect on respiratory rate, a tracheotomy was also performed using a short length of polyethylene tubing containing a thermistor (AD Instruments). The change in temperature detected by the thermistor was used to calculate respiratory rate.
as §1

[4] = Plasma exposure in rat CV/R assay; format: in vivo; conditions: rat, rat, IV infusion; for concentration at 15 min / concentration at 30 min: CD, plasma, iv
Text: as §1, with “Doses were selected to achieve unbound plasma concentrations in range of measured Nav1.6 IC50 values when infused at 0.0167uL/g body weight/min based on measured rat clearance, plasma protein binding and Nav1.6 IC50.” left out

[5] = male, 3 mg/kg, 3 mg/kg, read-out: Total [plasma]
[6] = male, 3 mg/kg, 3 mg/kg, read-out: Unbound [plasma]
[7] = 30 mg/kg, 11 min, just prior to death

Structure (SMILES): O=S(=O)(Nc1ncns1)c1cc(F)c(NCC23CCCN2CCC3)cc1F [SSCI-4]
- concentration at 15 min ([1]; read-out: Total [plasma]): 55.3 ± 5.5 µM
- concentration at 15 min ([1]; read-out: Unbound [plasma]): 23.3 ± 2.61 µM
- concentration at 30 min ([1]; read-out: Total [plasma]): 61.6 µM
- concentration at 30 min ([1]; read-out: Unbound [plasma]): 29.3 µM
- concentration at 10 min ([1]; 30 mg/kg, read-out: Total [plasma]): 91.4 µM
- concentration at 10 min ([1]; 30 mg/kg, read-out: Unbound [plasma]): 43.5 µM
- Total [plasma] ([1]; 30 mg/kg, 25–33 min): 108.234 ± 9.606 µM
- Unbound [plasma] ([1]; 30 mg/kg, 25–33 min): 51.46 ± 4.56 µM
- IC50 ([2]; Rattus norvegicus, relative to 3 μM d-Tubocurarine relaxation = 100%): 8.9 µM
- percent decrease in the magnitude of the phrenic nerve signal (phrenic nerve): 50%
- ∆ Heart Rate ([3]; 3 mg/kg, 15 min): −3.5 bpm
- ∆ Mean Arterial Pressure ([3]; 3 mg/kg, 15 min): 6.4 mmHg
- ∆ QRS Interval ([3]; 3 mg/kg, 15 min): 2.4
- ∆ respiratory rate ([3]; 3 mg/kg, 15 min): −24.7%
- ∆ Heart Rate ([3]; 3 mg/kg, 30 min): −5.6 bpm
- ∆ Mean Arterial Pressure ([3]; 3 mg/kg, 30 min): 2.4 mmHg
- ∆ QRS Interval ([3]; 3 mg/kg, 30 min): 4.5
- ∆ respiratory rate ([3]; 3 mg/kg, 30 min): −26.1%
- ∆ Heart Rate ([3]; 10 mg/kg, 15 min): 6.6 bpm
- ∆ Mean Arterial Pressure ([3]; 10 mg/kg, 15 min): −5.5 mmHg
- ∆ QRS Interval ([3]; 10 mg/kg, 15 min): 7.6
- ∆ respiratory rate ([3]; 10 mg/kg, 15 min): −17.8%
- ∆ respiratory rate ([3]; 10 mg/kg, 25 min): −100%
- ∆ respiratory rate ([3]; 30 mg/kg, 11 min): −100%
- concentration at 15 min ([4]; 10 mg/kg, 10 mg/kg, read-out: Total [plasma]): 31.5 µM
- concentration at 15 min ([4]; 10 mg/kg, 10 mg/kg, read-out: Unbound [plasma]): 15 µM
- concentration at 15 min [4, 5]: 11.4 µM
- concentration at 15 min [4, 6]: 5.4 µM
- concentration at 30 min [4, 5]: 17.6 µM
- concentration at 30 min [4, 6]: 8.4 µM
- Total [plasma] ([4]; 10 mg/kg, 25 min, just prior to death): 39.3a μM
- Total [plasma] [4, 7]: 89.7a μM
- Unbound [plasma] [4, 7]: 42.7a μM

Structure (SMILES): COc1cc2c3cc1Oc1cc(ccc1O)C[C@@H]1c4c(cc(OC)c(O)c4Oc4ccc(cc4)C[C@@H]3N(C)CC2)CC[N+]1(C)C [d-Tubocurarine, D-Tubocurarine, reference compound]
- relaxation, % of the maximal relaxation of the muscle ([2]; 3 μM, termed the 100% inhibition level): 60–70%
